Series [1] relates to BTECs. As to the kind of experiment: Mitochondrial ATP levels in BTECs. Type of series: cell-based, human. Particulars: FLVCR1a-silenced vs scramble shRNA BTECs. An excerpt:
Results were expressed as nmol NAD*/min/mg mitochondrial protein for complex I, nmol reduced cytochrome c/min/mg mitochondrial protein for complexes II-III, nmol oxidized cytochrome c/min/mg mitochondrial protein for complex IV. Data represent mean±SEM, n=3. For statistical analyses, an unpaired Student's t-test was used; *=p<0.05, **=p<0.01, *=p<0.001. […] Results are expressed as nmol/mg mitochondrial proteins. Data represent mean±SEM, n=3. For statistical analyses, an unpaired Student's t-test was used; *=p<0.05. […] Results are expressed as pmol CO2/h/mg protein. Data represent mean±SEM, n=3. For statistical analyses, an unpaired Student's t-test was used; **=p<0.01. […] Results were expressed as nmol NAD*/min/mg mitochondrial protein for complex I, nmol reduced cytochrome c/min/mg mitochondrial protein for complexes II-III, nmol oxidized cytochrome c/min/mg mitochondrial protein for complex IV. […] Results are expressed as nmol/mg mitochondrial proteins. […] Results are expressed as pmol CO2/h/mg protein. […] (H) TCA cycle enzymes activities are reported in boxes and expressed as mU/mg mitochondrial proteins. […] Results were expressed as nmol NAD^+/min/mg mitochondrial protein for complex I, nmol reduced cytochrome c/min/mg mitochondrial protein for complexes II-III, nmol oxidized cytochrome c/min/mg mitochondrial protein for complex IV. […] Results are expressed as nmol/mg mitochondrial proteins. […]

Series [2] concerns BTECs. The experiment in a line: Wound healing assay (BTECs migration). It is filed as cell-based, human. Particulars: FLVCR1a-silenced vs scramble shRNA BTECs. An excerpt:
(A) BTECs counting, as a readout of cell proliferation, at the indicated time points. […] Data represent mean±SEM, n=4. For statistical analyses, a two-way analysis of variance was used, followed by the Bonferroni correction for multiple group comparisons; ***p<0.001. (B) Quantification of BTECs migration rate in wound-healing assay. […] Data represent mean±SEM, n=32. For statistical analyses, a nonparametric unpaired Mann-Whitney test was used; ***p<0.001. (C) In vitro tubulogenesis assay on matrigel. […] The number of nodes counted within the neo-formed vascular networks is shown. Data represent mean±SEM; n=10. For statistical analyses, a nonparametric unpaired Mann-Whitney test was used; **p<0.01.
To evaluate cell motility, BTECs were grown to confluence in 24-well plates coated with 1% Gelatin from bovine skin (Sigma-Aldrich, St. Louis, MO USA, catalog n° G9391). […] Cell migration into the wound was monitored using a Nikon Eclipse T-E microscope with a 4× objective. […] Three separate wells were used for each condition and, in each well, at least six fields were analysed for each condition. Cell migration into the wound was assessed using Fiji open source software (Schindelin et al., 2012) (http://fiji.sc/ RRID:SCR_002285), by measuring the distance between the two sides of the wound at each time point. Data were expressed as percentage of cell migration. […]

For “FLVCR1a shRNA: shRNA specifically down-regulating FLVCR1a without targeting FLVCR1b; pLKO.1 lentiviral clone TRCN0000059599, antisense SEQ ID No.: 2 (antisense TTGCTAATGATGCTGTACTGG; sense CCAGTACAGCATCATTAGCAA)”, the “mitochondrial ATP levels” value with BTECs [1] is “increased mitochondrial ATP levels”. For the same substance, in the series on BTECs [2], the migratory rate entry is listed as “reduction of the migratory rate”.

The values above are taken from patent publication US20240285670A1, “THERAPEUTIC TREATMENT OF TUMORS BY BLOCKING THE HEME SYNTHESIS-EXPORT AXIS” (Università degli Studi di Torino, priority 2021, published 2024).
